# Assay results taken from patent EP4793274A1, “SALT AND CRYSTAL FORM OF KIF18A INHIBITOR COMPOUND, PREPARATION METHOD THEREFOR AND USE THEREOF” (Hubei Bio-Pharmaceutical Industrial Technological Institute …, priority 2023, dated 2025).
# What was measured:
# [1] = Solubility at room temperature in water, SGF and FaSSIF (HPLC concentration, pH of filtrate, XRPD of residual solid); conditions: listed as Crystal form B of p-toluenesulfonate; for S: solubility: feeding concentration 1 mg/mL; for pH: pH of filtrate
# Experimental: 100 mg of NaCl and 50 mg of Triton X-100 were weighed into a 50 mL volumetric flask and then completely dissolved by addition of purified water. 816 µL of 1 M hydrochloric acid was added, and the pH was adjusted to 1.8 with 1 M hydrochloric acid or 1 M NaOH solution. The mixed solution was brought to the volume by addition of purified water.
# 340 mg of anhydrous NaH2PO4 and 620 mg of NaCl were weighed into a 100 mL volumetric flask, and then completely dissolved by addition of purified water. 55.44 µL of a 50% NaOH solution was then added, and the pH was adjusted to 6.5 with 1 M hydrochloric acid or 1 M NaOH solution. The mixed solution was brought to the volume by addition of purified water. Subsequently, 110 mg of SIF powder was weighed into a 50 mL volumetric flask and completely dissolved in the solution described above, and the mixed solution was brought to the volume.
# Solids at a feeding concentration of 1 mg/mL (calculated based on free crystal form) were rotationally mixed with corresponding vehicles at room temperature. […] After sampling at each time point, the samples were centrifuged (at 10000 rpm) and filtered (through a 0.22 µm PTFE filter head), the HPLC concentrations and pH values of the filtrates were determined, and the centrifuged solid samples were subjected to XRPD analysis.
# [2] = Dynamic solubility at 37 °C in H2O, SGF, FaSSIF and FeSSIF (HPLC concentration, pH of filtrate, XRPD of residual solid); assay type: physicochemical; conditions: listed as Crystal form B of p-toluenesulfonate; for S: solubility: feeding concentration 10 mg/mL; for FC: crystal form change: XRPD of residual solid; for pH: pH of filtrate
# Experimental: 0.82 mL of glacial acetic acid and 1.18 g of NaCl were added to a 100 mL volumetric flask and completely dissolved by addition of purified water.
# The solubility of each sample in H2O, SGF, FaSSIF, and FeSSIF was determined at different time points (1 h, 2 h, 4 h, and 24 h). […] 137-156. […] Table C-2. Summary of dynamic solubility test results at 37 °C
# [3] = Hygroscopicity by dynamic vapor sorption (DVS); assay type: physicochemical; conditions: 25 °C/80% RH
# Experimental: Dynamic vapor sorption (DVS) curves were acquired on a DVS IntrInsic from Surface Measurement Systems (SMS). The relative humidity at 25 °C was corrected with the deliquescence points of LiCl, Mg(NO3)2, and KCl. Table A-5. DVS test parameters
# The percentage changes in mass of the samples when the humidity changed (0% RH to 95% RH) at a constant temperature of 25 °C were collected. 157-166.
# [4] = Solid state stability (XRPD and HPLC purity); assay type: physicochemical
# Source text: 167-171. […] Table C-3. Summary of solid state stability evaluation
# [5] = 80 °C/sealed, 1 day, listed as Crystal form B of p-toluenesulfonate
compound,measurement,setting,value
Cc1cc(-c2cnn(-c3ccc(NS(=O)(=O)CCO)cc3N3CCC4(CC3)CC4)c2)nc(N2CCC(F)(F)CC2)n1 [crystal form B of the p-toluenesulfonate],S: solubility,"[1]; FaSSIF, 2 h, 120 min",85.8 µg/mL
same,S: solubility,"[1]; FaSSIF, 24 h, 1440 min",37.8 µg/mL
same,S: solubility,"[1]; H2O, 24 h, 1440 min",0.1 µg/mL
same,S: solubility,"[1]; SGF, 2 h, 120 min",41.3 µg/mL
same,S: solubility,"[1]; SGF, 24 h, 1440 min",19.7 µg/mL
same,pH,"[1]; FaSSIF, 2 h",6.5
same,pH,"[1]; FaSSIF, 24 h",6.4
same,pH,"[1]; H2O, 2 h",3.4
same,pH,"[1]; H2O, 24 h",2.8
same,pH,"[1]; SGF, 2 h",1.9
same,pH,"[1]; SGF, 24 h",1.8
same,S: solubility,"[2]; FaSSIF, 1 h, 60 min",61.4 µg/mL
same,S: solubility,"[2]; FaSSIF, 2 h, 120 min",51.7 µg/mL
same,S: solubility,"[2]; FaSSIF, 4 h, 240 min",22.2 µg/mL
same,S: solubility,"[2]; FaSSIF, 24 h, 1440 min",16.3 µg/mL
same,S: solubility,"[2]; FeSSIF, 1 h, 60 min",182.8 µg/mL
same,S: solubility,"[2]; FeSSIF, 2 h, 120 min",166.5 µg/mL
same,S: solubility,"[2]; FeSSIF, 4 h, 240 min",159.9 µg/mL
same,S: solubility,"[2]; FeSSIF, 24 h, 1440 min",81.4 µg/mL
same,S: solubility,"[2]; H2O, 1 h, 60 min",2.7 µg/mL
same,S: solubility,"[2]; H2O, 2 h, 120 min",2.5 µg/mL
same,S: solubility,"[2]; H2O, 4 h, 240 min",1.9 µg/mL
same,S: solubility,"[2]; H2O, 24 h, 1440 min",1.5 µg/mL
same,S: solubility,"[2]; SGF, 1 h, 60 min",56.8 µg/mL
same,S: solubility,"[2]; SGF, 2 h, 120 min",45.6 µg/mL
same,S: solubility,"[2]; SGF, 4 h, 240 min",23.3 µg/mL
same,S: solubility,"[2]; SGF, 24 h, 1440 min",18.1 µg/mL
same,FC: crystal form change,"[2]; FaSSIF, 1 h",Yes
same,FC: crystal form change,"[2]; FaSSIF, 2 h",Yes
same,FC: crystal form change,"[2]; FaSSIF, 4 h",Yes
same,FC: crystal form change,"[2]; FaSSIF, 24 h",Yes
same,FC: crystal form change,"[2]; FeSSIF, 1 h",Yes
same,FC: crystal form change,"[2]; FeSSIF, 2 h",Yes
same,FC: crystal form change,"[2]; FeSSIF, 4 h",Yes
same,FC: crystal form change,"[2]; FeSSIF, 24 h",Yes
same,FC: crystal form change,"[2]; H2O, 1 h",Yes
same,FC: crystal form change,"[2]; H2O, 2 h",Yes
same,FC: crystal form change,"[2]; H2O, 4 h",Yes
same,FC: crystal form change,"[2]; H2O, 24 h",Yes
same,FC: crystal form change,"[2]; SGF, 1 h",Yes
same,FC: crystal form change,"[2]; SGF, 2 h",Yes
same,FC: crystal form change,"[2]; SGF, 4 h",Yes
same,FC: crystal form change,"[2]; SGF, 24 h",Yes
same,pH,"[2]; FaSSIF, 1 h",2.92
same,pH,"[2]; FaSSIF, 2 h",2.84
same,pH,"[2]; FaSSIF, 4 h",2.74
same,pH,"[2]; FaSSIF, 24 h",2.68
same,pH,"[2]; FeSSIF, 1 h",4.68
same,pH,"[2]; FeSSIF, 2 h",4.66
same,pH,"[2]; FeSSIF, 4 h",4.68
same,pH,"[2]; FeSSIF, 24 h",4.74
same,pH,"[2]; H2O, 1 h",2.17
same,pH,"[2]; H2O, 2 h",2.17
same,pH,"[2]; H2O, 4 h",2.09
same,pH,"[2]; H2O, 24 h",1.95
same,pH,"[2]; SGF, 1 h",1.64
same,pH,"[2]; SGF, 2 h",1.63
same,pH,"[2]; SGF, 4 h",1.60
same,pH,"[2]; SGF, 24 h",1.59
same,vapor sorption values,[3],0.171%
same,HPLC results Relative to starting (%),"[4]; 25 °C/60% RH/open, 1 week",100.0%
same,HPLC results Purity (area%),"[4]; 25 °C/60% RH/open, 1 week, listed as Crystal form B of p-toluenesulfonate",98.27 area%
same,HPLC results Relative to starting (%),"[4]; 40 °C/75% RH/open, 1 week",100.0%
same,HPLC results Purity (area%),"[4]; 40 °C/75% RH/open, 1 week, listed as Crystal form B of p-toluenesulfonate",98.25 area%
same,HPLC results Purity (area%),[4]; [5],98.28 area%
same,HPLC results Relative to starting (%),[4]; [5],100.0%
same,HPLC results Purity (area%),"[4]; Starting, listed as Crystal form B of p-toluenesulfonate",98.28 area%
same,Crystal form,"[4]; XRPD after 25 °C/60% RH/open, 1 week, listed as Crystal form B of p-toluenesulfonate",Crystal form B of p-toluenesulfonate
same,Crystal form,"[4]; XRPD after 40 °C/75% RH/open, 1 week, listed as Crystal form B of p-toluenesulfonate",Crystal form B of p-toluenesulfonate
same,Crystal form,"[4]; XRPD after 80 °C/sealed, 1 day, listed as Crystal form B of p-toluenesulfonate",Crystal form B of p-toluenesulfonate
